“Also recorded” adds a separate entry of the source.
Key:
[1] = system: nicotinic acetylcholine receptors (cell lines expressing various combinations of nicotinic-receptor subunits); assay: functional fluorescence bioassay of HPLC fractions across several cell lines; type: cell-based; conditions: for nicotinic receptor agonist activity (time-bioactivity profile of HPLC fractions): several cell lines
Procedure: (§1) The structures of compounds 1-6 are set forth below.
(§2) Biological Investigation of Phantasmidine. Semi-preparative HPLC-bioassay analysis was conducted as described previously^9 on the alkaloid fraction of E. anthonyi in several cell lines, including TE-671 (neuromuscular),^16 SH-SY5Y (ganglionic α3*, α3β4*, α7),^15 and several transfected cell lines expressing nicotinic receptor subunit combinations of α2-4 and β2/β4.^12,13,17
(§3) Collected analytical scale fractions in 96-well plates were reconstituted in situ with 300 μL Hanks balanced salt solution containing 20 mM HEPES at pH 7.4 (HBSS/HEPES) and were used as such. Cell lines expressing various nicotinic receptors were maintained in culture and used for functional fluorescence assays including SH-SY5Y, IMR-32, TE-671, KXα3β4R2, KXα4β4R1, and KXα4β2R2, as previously described.^9,11 Briefly, cells were plated onto 96-well poly-D-lysine-coated plates in Dulbecco's modified minimum essential media supplemented with 10% fetal bovine serum (supplemented with Geneticin G418 for KXα3β4R2, KXα4β4R1, and KXα4β2R2 cells) and grown to near confluence. The media was aspirated and the cells were gently washed with 2×100 μL HBSS/HEPES (pH 7.4). A solution of Molecular Devices no-wash membrane potential dye (30 μL) was added and the cells incubated in the dark at room temperature for 1 h. Plates were read on a FLEXSTATION™ (Molecular Devices) robotic plate reader at an excitation wavelength of 530 nm, emission wavelength of 565 nm, with a cutoff filter at 550 nm. Basal fluorescence was measured for 15 s and 30 μL of reconstituted E. anthonyi fraction in HBSS/HEPES were added. Response was measured for 105 s and 30 μL of 300 μM nicotine were added. The nicotine response was measured for 40 s and 30 μL of 160 mM KCl were added. Maximal fluorescence was measured for 40 s. Average basal fluorescence was subtracted and response was taken as the peak fluorescence for each addition divided by the maximal KCl fluorescence. Responses for each fraction were plotted as a function of time and compared to the UV and total ion chromatograms to identify active components. Preparative-scale isolation was then conducted and structures of active components were elucidated.

[2] = target: T1, KXα3β4R2 cells (HEK cells expressing rat α3 and β4 nicotinic receptor subunits) (Rattus norvegicus, UniProt P04757+P12392); type: cell-based
T1 construct: expressed in transfected cells; host or cells: HEK cells (KXα3β4R2)

nicotinic receptors = conditions: cited from earlier work
[3] = system: IMR-32 cells (β4 nicotinic subunits); assay: functional fluorescence (membrane potential dye) bioassay of HPLC fractions; type: cell-based
Procedure: as §1, §2, §3

[4] = target: T2, KXα4β2R2 cells (β2-containing) (Rattus norvegicus, UniProt P09483+P12390); assay: as above; type: cell-based
T2 construct: expressed in transfected cells; host or cells: KXα4β2R2 (G418-selected transfected line)
Procedure: as §1, §2, §3

[5] = target: T3, KXα4β4R1 cells (β4 nicotinic subunits) (Rattus norvegicus, UniProt P09483+P12392); assay: as above; type: cell-based
T3 construct: expressed in transfected cells; host or cells: KXα4β4R1 (G418-selected transfected line)
Procedure: as §1, §2, §3

[6] = system: SH-SY5Y cells (ganglionic α3*, α3β4*, α7); assay: as above; type: cell-based
Procedure: as §1, §2, §3

[7] = target: T4, TE-671 cells (neuromuscular) (Homo sapiens, UniProt P02708+P07510+Q07001); assay: as above; type: cell-based
T4 construct: endogenous in cells; host or cells: TE-671
Procedure: as §1, §2, §3

[8] = target: T5, K-177 cells (β2-containing) (Homo sapiens, UniProt P17787+P43681); assay: functional fluorescence bioassay of HPLC fractions; type: cell-based
T5 construct: expressed in transfected cells; host or cells: K-177
Procedure: as §1, §2

T1 sequence (P12392 21-495): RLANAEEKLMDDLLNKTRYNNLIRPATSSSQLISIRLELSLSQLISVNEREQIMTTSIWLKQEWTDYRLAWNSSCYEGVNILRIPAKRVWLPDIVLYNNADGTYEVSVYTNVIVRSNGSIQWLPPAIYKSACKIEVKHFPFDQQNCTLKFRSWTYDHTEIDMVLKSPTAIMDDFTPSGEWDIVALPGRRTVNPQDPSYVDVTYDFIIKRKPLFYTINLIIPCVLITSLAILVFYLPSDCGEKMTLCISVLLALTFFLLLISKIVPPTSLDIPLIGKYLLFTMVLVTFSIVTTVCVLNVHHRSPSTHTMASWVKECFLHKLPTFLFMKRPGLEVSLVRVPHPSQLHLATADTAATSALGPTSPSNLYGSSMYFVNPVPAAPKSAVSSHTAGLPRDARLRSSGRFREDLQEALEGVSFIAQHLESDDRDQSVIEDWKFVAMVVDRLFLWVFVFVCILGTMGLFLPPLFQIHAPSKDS
T1 sequence (P04757 26-499): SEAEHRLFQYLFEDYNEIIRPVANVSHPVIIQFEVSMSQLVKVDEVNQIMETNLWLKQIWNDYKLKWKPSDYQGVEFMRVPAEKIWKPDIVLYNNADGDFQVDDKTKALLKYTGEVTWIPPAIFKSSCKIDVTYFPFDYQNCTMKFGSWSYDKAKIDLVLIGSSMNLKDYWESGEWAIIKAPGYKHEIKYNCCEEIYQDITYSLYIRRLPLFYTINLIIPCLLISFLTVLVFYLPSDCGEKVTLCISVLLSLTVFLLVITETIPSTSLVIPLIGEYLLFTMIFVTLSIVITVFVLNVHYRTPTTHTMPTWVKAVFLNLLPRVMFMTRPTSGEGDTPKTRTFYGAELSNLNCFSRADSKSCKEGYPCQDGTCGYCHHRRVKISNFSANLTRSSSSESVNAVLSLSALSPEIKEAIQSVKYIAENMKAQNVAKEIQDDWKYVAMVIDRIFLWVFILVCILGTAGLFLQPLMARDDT
T5 sequence (P43681 29-627): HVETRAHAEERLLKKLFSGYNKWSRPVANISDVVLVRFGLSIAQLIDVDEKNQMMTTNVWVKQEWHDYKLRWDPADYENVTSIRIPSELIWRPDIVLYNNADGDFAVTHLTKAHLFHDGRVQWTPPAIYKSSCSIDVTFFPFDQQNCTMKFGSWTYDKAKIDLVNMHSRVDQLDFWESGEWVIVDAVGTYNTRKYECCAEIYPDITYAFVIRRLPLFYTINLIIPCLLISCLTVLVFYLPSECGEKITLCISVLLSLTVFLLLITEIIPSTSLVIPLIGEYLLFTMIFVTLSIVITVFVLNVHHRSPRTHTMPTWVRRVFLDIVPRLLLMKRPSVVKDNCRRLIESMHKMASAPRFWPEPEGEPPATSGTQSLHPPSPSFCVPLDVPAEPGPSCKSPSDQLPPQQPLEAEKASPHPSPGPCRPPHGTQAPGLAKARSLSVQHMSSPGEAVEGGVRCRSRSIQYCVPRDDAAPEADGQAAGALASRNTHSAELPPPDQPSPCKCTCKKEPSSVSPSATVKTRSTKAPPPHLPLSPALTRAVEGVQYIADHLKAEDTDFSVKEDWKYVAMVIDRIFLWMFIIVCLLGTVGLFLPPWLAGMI
T5 sequence (P17787 26-502): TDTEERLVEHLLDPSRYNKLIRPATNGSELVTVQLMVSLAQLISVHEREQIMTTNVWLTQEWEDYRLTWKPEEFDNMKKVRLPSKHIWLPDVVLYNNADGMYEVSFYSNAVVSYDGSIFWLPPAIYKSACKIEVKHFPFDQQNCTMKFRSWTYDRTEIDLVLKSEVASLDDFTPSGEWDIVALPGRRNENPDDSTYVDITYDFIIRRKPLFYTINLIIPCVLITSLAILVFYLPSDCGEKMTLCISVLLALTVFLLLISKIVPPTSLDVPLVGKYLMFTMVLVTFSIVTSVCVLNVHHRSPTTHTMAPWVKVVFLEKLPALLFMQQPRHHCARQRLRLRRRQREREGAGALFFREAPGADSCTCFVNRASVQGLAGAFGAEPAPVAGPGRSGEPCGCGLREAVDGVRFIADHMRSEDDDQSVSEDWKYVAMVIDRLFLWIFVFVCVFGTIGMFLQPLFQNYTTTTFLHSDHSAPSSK
T4 sequence (P02708 21-457): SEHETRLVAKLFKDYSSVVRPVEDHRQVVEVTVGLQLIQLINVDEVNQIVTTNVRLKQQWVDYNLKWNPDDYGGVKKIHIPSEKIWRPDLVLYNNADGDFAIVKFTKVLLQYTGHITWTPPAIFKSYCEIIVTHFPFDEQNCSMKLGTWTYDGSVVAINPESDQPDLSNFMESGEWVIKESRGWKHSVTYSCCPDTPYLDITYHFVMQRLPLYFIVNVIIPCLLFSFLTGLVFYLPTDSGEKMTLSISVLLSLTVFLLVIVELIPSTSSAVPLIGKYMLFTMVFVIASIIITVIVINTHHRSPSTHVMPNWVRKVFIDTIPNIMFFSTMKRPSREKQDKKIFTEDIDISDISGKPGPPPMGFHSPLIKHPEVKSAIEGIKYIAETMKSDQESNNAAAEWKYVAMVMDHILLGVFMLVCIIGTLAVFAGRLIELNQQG
T4 sequence (P11230 24-501 partner): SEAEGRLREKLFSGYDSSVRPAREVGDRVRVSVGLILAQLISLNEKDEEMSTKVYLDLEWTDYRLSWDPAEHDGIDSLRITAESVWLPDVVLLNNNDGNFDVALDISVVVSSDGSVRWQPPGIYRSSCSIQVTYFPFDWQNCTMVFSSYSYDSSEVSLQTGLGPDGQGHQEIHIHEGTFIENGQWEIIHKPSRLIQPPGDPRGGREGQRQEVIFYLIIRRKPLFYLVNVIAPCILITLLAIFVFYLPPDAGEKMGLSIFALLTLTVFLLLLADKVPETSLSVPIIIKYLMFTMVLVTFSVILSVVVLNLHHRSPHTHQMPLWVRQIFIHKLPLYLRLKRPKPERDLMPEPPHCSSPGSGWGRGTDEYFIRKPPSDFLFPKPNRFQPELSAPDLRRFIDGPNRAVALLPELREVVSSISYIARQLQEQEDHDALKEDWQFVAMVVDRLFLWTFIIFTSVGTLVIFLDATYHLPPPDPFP
T4 sequence (P07510 23-517): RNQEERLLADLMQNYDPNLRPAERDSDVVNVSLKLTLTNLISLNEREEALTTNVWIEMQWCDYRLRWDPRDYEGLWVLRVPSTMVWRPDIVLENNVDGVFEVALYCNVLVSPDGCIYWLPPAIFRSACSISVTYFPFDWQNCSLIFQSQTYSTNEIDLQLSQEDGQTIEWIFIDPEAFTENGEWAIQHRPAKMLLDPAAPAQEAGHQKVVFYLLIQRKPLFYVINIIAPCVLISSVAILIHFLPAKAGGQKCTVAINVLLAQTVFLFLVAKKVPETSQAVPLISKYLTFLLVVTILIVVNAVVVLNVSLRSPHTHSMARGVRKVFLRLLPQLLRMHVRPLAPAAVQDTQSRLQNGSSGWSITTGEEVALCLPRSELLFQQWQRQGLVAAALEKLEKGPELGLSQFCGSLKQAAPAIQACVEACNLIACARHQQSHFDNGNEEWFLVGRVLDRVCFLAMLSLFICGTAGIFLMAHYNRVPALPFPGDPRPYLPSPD
T4 sequence (Q07001 22-517): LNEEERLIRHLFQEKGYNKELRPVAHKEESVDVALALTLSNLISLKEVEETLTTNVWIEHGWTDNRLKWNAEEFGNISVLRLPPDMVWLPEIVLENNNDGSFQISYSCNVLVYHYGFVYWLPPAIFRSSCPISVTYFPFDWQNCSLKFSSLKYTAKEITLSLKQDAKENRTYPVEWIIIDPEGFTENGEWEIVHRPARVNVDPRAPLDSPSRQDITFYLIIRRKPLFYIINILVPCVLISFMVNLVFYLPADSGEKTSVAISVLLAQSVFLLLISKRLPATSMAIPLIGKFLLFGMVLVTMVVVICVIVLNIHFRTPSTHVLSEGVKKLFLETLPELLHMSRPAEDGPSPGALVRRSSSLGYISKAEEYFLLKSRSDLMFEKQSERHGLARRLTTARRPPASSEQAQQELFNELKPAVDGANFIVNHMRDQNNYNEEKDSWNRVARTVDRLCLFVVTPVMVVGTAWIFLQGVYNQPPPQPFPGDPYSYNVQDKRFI
T3 sequence (P09483 31-630): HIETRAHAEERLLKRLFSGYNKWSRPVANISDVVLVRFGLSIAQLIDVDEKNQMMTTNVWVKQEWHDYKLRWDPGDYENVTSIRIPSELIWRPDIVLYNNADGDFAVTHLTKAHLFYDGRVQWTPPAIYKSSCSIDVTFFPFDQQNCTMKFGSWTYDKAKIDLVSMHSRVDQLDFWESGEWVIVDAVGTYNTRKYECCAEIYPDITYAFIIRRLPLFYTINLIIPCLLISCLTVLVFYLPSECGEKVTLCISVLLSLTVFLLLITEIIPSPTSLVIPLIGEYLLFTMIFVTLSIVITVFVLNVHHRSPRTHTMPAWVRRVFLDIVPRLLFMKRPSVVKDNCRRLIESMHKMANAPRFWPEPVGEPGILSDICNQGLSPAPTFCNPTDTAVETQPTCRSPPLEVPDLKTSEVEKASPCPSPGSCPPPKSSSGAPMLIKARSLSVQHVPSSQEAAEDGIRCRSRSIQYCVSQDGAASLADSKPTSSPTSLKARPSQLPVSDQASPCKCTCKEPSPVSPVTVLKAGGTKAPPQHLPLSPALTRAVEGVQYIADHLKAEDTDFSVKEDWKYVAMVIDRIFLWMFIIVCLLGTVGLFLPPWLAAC
T3 sequence (P12392 21-495): as the sequence (P12392 21-495) above

## Clc1ccc(C2CC3CCC2N3)cn1 (centres unmarked) [Compound 1, epibatidine]
[1]
  nicotinic receptor agonist activity (time-bioactivity profile of HPLC fractions): active in all cell lines to varying degrees; also recorded: greatest activity in the sample regardless of cell line examined

## CC(=O)N[C@H]1CCCN2CCCC[C@@H]12 [Compound 2, epiquinamide, reference compound]
[2]; cells expressing α3 and β4 subunits, fractions of E. anthonyi alkaloid extract
  nicotinic-agonist activity of isolated fraction: artifactual activity from cross contamination with epibatidine
[1]
  nicotinic receptor agonist activity (time-bioactivity profile of HPLC fractions): artifact due to a cross-contamination from 1

## CN1C2CCC1C(c1ccc(Cl)nc1)C2 (centres unmarked) [Compound 3, N-methylepibatidine]
[1]
  nicotinic receptor agonist activity (time-bioactivity profile of HPLC fractions): responsible for the leading edge of the epibatidine activity; also recorded: significant bioactivity
Nicotinic receptors
  potency relative to epibatidine: essentially equipotent with epibatidine

## Clc1ccc2c(n1)O[C@@]13CC[C@@H]1NC[C@@H]23 [Compound 4, Phantasmidine]
[2]; KXα3β4R2 cells
  relative activity compared to 1 (height and area of activity peaks): higher relative activities
[3]
  relative activity compared to 1 (height and area of activity peaks): higher relative activities
[4]
  relative activity compared to 1 (height and area of activity peaks): less activity
[5]
  relative activity compared to 1 (height and area of activity peaks): higher relative activities
[6]
  relative activity compared to 1 (height and area of activity peaks): higher relative activities
[7]
  relative activity compared to 1 (height and area of activity peaks): less activity
[8]
  relative activity compared to 1 (height and area of activity peaks): less activity
[1]; across several cell lines expressing different nicotinic-receptor subtypes
  subtype selectivity relative to 1: altered subtype selectivity relative to 1
[1]
  nicotinic receptor agonist activity (time-bioactivity profile of HPLC fractions): significant bioactivity; also recorded: nicotinic agonist

Reference: patent publication US9902734B2, “Nicotinic acetylcholine receptor agonists” (priority 2010, dated 2018)
